Source: patent US20200188361A1, “USE OF MITOCHONDRIAL ACTIVITY INHIBITORS FOR THE TREATMENT OF POOR PROGNOSIS ACUTE MYELOID LEUKEMIA” (UNIVERSITE DE MONTREAL, priority 2016, published 2020)
Read-outs that look alike come from different tables or passages of the source.

Key:
[1] = system: HOX-med/low AML patient cells; assay: Primary chemical screen of 60 compounds, cell dose-response viability assay (CellTiterGlo, 6 days); type: cell-based, human; conditions: read-out: MEAN EC50 HOX-med/low
Method: (§1) frozen AML mono-nucleated cells were thawed at 37° C. in Iscove's modified Dulbecco's medium (IMDM) containing 20% FBS and DNase I (100 μg/mL).
(§2) All powders were dissolved in DMSO and diluted in culture medium immediately before use. Final DMSO concentration in all conditions was 0.1%. The 60 compounds were purchased from various suppliers including Santa Cruz, Selleckchem, Calbiochem, AdooQ Bioscience, Cayman chemical and Synkinase.
(§3) Patient cells were seeded in 384-well plates at a density of 5,000 cells in 50 μL per well. In the initial screen, compounds were added to seeded cells in serial dilutions (10 dilutions, 1:3, starting from 10 μM or 20 μM), in duplicates. Cells treated with 0.1% DMSO without additional compound were used as negative controls. Viable cell counts per well were evaluated after 6 days of culture using the CellTiterGlo® assay (Promega®) according to the manufacturer's instruction.
(§4) Using high expression of HOXA9 and HOXA10 as a surrogate for the detection of HOX-network-high patient samples, the survival of HOX-high versus HOX-med/low specimens contacted with 60 inhibitors targeting receptor tyrosine kinases (RTK), members of the RAS and PI3K pathways, was assessed (FIG. 2A, Table 4).

[2] = system: HOX-high AML patient cells; assay: as above; type: cell-based, human; conditions: for EC50: read-out: MEAN EC50 HOX-high
Method: as §1, §2, §3, §4

[3] = Homo sapiens, 144 h, primary screen, mean over HOX-med/low patient specimens, 6 days culture, top concentration 10 μM or 20 μM
[4] = Homo sapiens, 144 h, primary screen, mean over HOX-high patient specimens, 6 days culture, top concentration 10 μM or 20 μM
[5] = ratio of mean EC50 HOX-high to mean EC50 HOX-med/low
[6] = primary screen, mean over HOX-med/low patient specimens, 6 days culture, top concentration 10 μM or 20 μM
[7] = primary screen, mean over HOX-high patient specimens, 6 days culture, top concentration 10 μM or 20 μM

SMILES | EC50 [1, 3] | EC50 [2, 4] | FOLD CHANGE High/Med-low [2, 5] | EC50 [1, 6] | further results
CNC(=O)c1cccc(-c2ccc3c(N4CCOC[C@@H]4C)nc(N4CCOC[C@@H]4C)nc3n2)c1 [AZD2014, 3-(2,4-bis((S)-3-methylmorpholino)pyrido[2,3-d]pyrimidin-7-yl)-N-methylbenzamide] | 0.217 µM | 0.782 µM | 3.6 |  | 
Cc1nc2cc3nc(-c4cccs4)cnc3cc2n1C [AGL2043] |  |  | 1.1 | 8.38 µM | EC50 [2, 7]: 8.88 µM
C#Cc1cccc(Nc2ncnc3cc(OCCOC)c(OCCOC)cc23)c1 [Erlotinib] | 9.14 µM | 8.66 µM | 0.9 |  | 
Cc1ccc(NC(=O)c2cccc(N(C)C)c2)cc1NC(=O)c1ccc(O)cc1 [ZM336372] |  |  | 1.1 | 8.88 µM | EC50 [2, 7]: > 10 µM
CCCS(=O)(=O)Nc1ccc(F)c(C(=O)c2c[nH]c3ncc(-c4ccc(Cl)cc4)cc23)c1F [Vemurafenib] | 8.44 µM | 9.7 µM | 1.2 |  | 
COc1cccc(-c2cc(=O)c3ccccc3o2)c1N [PD98059] |  |  | 1.0 | > 10 µM | 
C[C@]1(O)C[C@@H](c2nc(-c3ccc4ccc(-c5ccccc5)nc4c3)c3c(N)nccn32)C1 [OS1906 Linsitinib., Linsitinib] | 3.94 µM | 4.25 µM | 1.1 |  | 
Cc1[nH]c(/C=C2\C(=O)Nc3cc(-c4ccccc4)ccc32)c(C)c1CCC(=O)O [PDGFR Tyrosine Kinase Inhibitor VII] |  |  | 2.1 | 2.84 µM | EC50 [2, 7]: 6 µM
CC(C)(C)c1cc(NC(=O)Nc2ccc(-c3cn4c(n3)sc3cc(OCCN5CCOCC5)ccc34)cc2)no1 [Quizartinib] | 0.52 µM | 0.23 µM | 0.4 |  | 
Cc1nc(Nc2ncc(C(=O)Nc3c(C)cccc3Cl)s2)cc(N2CCN(CCO)CC2)n1 [Dasatinib] | 0.322 µM | 0.774 µM | 2.4 |  | 
COc1ccc2cc(-c3nc(-c4ccc([S+](C)[O-])cc4)[nH]c3-c3ccncc3)ccc2c1 (stereo not shown) [Tie2 Kinase Inhibitor] |  |  | 1.0 | > 10 µM | EC50 [2, 7]: > 10 µM
COc1cc2nccc(Oc3ccc(NC(=O)Nc4ccc(F)cc4F)c(F)c3)c2cc1OC [Ki8751] |  |  | 1.1 | 0.768 µM | EC50 [2, 7]: 0.844 µM
CS(=O)(=O)N1CCN(Cc2cc3nc(-c4cccc5[nH]ncc45)nc(N4CCOCC4)c3s2)CC1 [GDC0941] | 0.603 µM | 1.11 µM | 1.8 |  | 
CN1CCC(c2[nH]nc(-c3ccc(Cl)cc3)c2-c2ccncn2)CC1 [p38 MAP Kinase Inhibitor V] |  |  | 0.8 | 8.79 µM | EC50 [2, 7]: 7.31 µM
NC1(c2ccc(-c3nc4ccn5c(=O)[nH]nc5c4cc3-c3ccccc3)cc2)CCC1 [MK2206] | 1.04 µM | 2.28 µM | 2.2 |  | 
COc1ccc(Cl)c(Nc2nc3ccccc3nc2NS(=O)(=O)c2cccc(NC(=O)C(C)(C)N)c2)c1 [SAR245408 XL147] | > 10 µM | > 10 µM |  |  | 
CC(=O)Nc1cccc(-n2c(=O)n(C3CC3)c(=O)c3c(Nc4ccc(I)cc4F)n(C)c(=O)c(C)c32)c1 [Trametinib GSK1120212, Trametinib] | 0.018 µM | 0.0253 µM | 1.4 |  | 
COc1ccc(-c2ccc3c(N4CCOC[C@@H]4C)nc(N4CCOC[C@@H]4C)nc3n2)cc1CO [AZD8055, (5-(2,4-bis((S)-3-methylmorpholino)pyrido[2,3-d]pyrimidin-7-yl)-2-methoxyphenyl)methanol] | 0.0692 µM | 0.324 µM | 4.7 |  | 
c1cc(CN2CCCNCCNCCCNCC2)ccc1CN1CCCNCCNCCCNCC1 [AMD3100] | > 10 µM | 9.59 µM | 1.0 |  | 
Nc1cccc2c1CN(C1CCC(=O)NC1=O)C2=O (stereo not shown) [Lenalidomide] | 9.91 µM | 7.31 µM | 0.7 |  | 
Cc1nc(NC(=O)N2CCC[C@H]2C(N)=O)sc1-c1ccnc(C(C)(C)C(F)(F)F)c1 [BYL719] | 4.75 µM | 7.52 µM | 1.6 |  | 
Nc1nc(Nc2ccc3c(c2)CCC(N2CCCC2)CC3)nn1-c1cc2c(nn1)-c1ccccc1CCC2 (stereo not shown) [R428] |  |  | 0.8 | 0.592 µM | EC50 [2, 7]: 0.487 µM

SMILES | EC50 [1, 3] | EC50 [2, 4] | FOLD CHANGE High/Med-low [2, 5] | EC50 [1, 6] | further results
N#CC(=C(/N)Sc1ccccc1N)/C(C#N)=C(\N)Sc1ccccc1N [U0126] |  |  |  |  | EC50 ([1]; Homo sapiens, 144 h): 4.11 µM; FOLD CHANGE High/Med-low [2]: 1.1; EC50 ([2]; Homo sapiens, 144 h): 4.48 µM
Cn1cnc2c(F)c(Nc3ccc(Br)cc3Cl)c(C(=O)NOCCO)cc21 [Selumetinib AZD6244., Selumetinib] | 1.38 µM | 1.24 µM | 0.9 |  | 
Cn1cc(C2=C(c3cn(C4CCN(Cc5ccccn5)CC4)c4ccccc34)C(=O)NC2=O)c2ccccc21 [Enzastaurin] | > 10 µM | 9.84 µM | 1.0 |  | 
COc1cc2ncnc(Nc3ccc(F)c(Cl)c3)c2cc1OCCCN1CCOCC1 [Gefitinib] |  |  | 0.9 |  | 
CC(C)c1cc(/C=C(\C#N)C(=O)NCCCc2ccccc2)cc(C(C)C)c1O [SU1498] |  |  | 1.0 | 9.67 µM | EC50 [2, 7]: 9.86 µM
COc1cccc2cc(-c3nc([C@H]4CC[C@H](C(=O)O)CC4)n4ncnc(N)c34)[nH]c12 [OSI027, (1r,4r)-4-(4-amino-5-(7-methoxy-1H-indol-2-yl)imidazo[1,5-f][1,2,4]triazin-7-yl)cyclohexanecarboxylic acid] | 0.666 µM | 2.03 µM | 3.1 |  | 
CO[C@H]1C[C@@H]2CC[C@@H](C)[C@@](O)(O2)C(=O)C(=O)N2CCCC[C@H]2C(=O)O[C@H]([C@H](C)C[C@@H]2CC[C@@H](O)[C@H](OC)C2)CC(=O)[C@H](C)/C=C(\C)[C@@H](O)[C@@H](OC)C(=O)[C@H](C)C[C@H](C)/C=C/C=C/C=C/1C [Rapamycin] | 0.951 µM | 1.89 µM | 2.0 |  | 
COc1cc2nccc(Oc3ccc(NC(=O)NC4CC4)c(Cl)c3)c2cc1C(N)=O [E7080 Lenvatinib., Lenvatinib] | 3.34 µM | 7.29 µM | 2.2 |  | 
CN(C)CCOc1ccc(-c2nc(-c3ccncc3)c(-c3ccc4c(c3)CC/C4=N\O)[nH]2)cc1 [SB590885] | 3.88 µM | 5.88 µM | 1.5 |  | 
Cc1ccc(NC(=O)c2ccc(CN3CCN(C)CC3)cc2)cc1Nc1nc(-c2cccnc2)cs1 [Masitinib] | 4.57 µM | 7.01 µM | 1.5 |  | 
NC(=O)c1ccc(N(C(N)=O)c2c(F)cccc2F)nc1-c1ccc(F)cc1F [VX702] | > 10 µM | 9.55 µM | 1.0 |  | 
Cc1cn(-c2cc(NC(=O)c3ccc(C)c(Nc4nccc(-c5cccnc5)n4)c3)cc(C(F)(F)F)c2)cn1 [Nilotinib] | 3.81 µM | 3.92 µM | 1.0 |  | 
CCN(CC)CCCCNc1ncc2cc(-c3cc(OC)cc(OC)c3)c(NC(=O)NC(C)(C)C)nc2n1 [PD173074] |  |  | 1.0 | 5.2 µM | EC50 [2, 7]: 4.95 µM
Cn1cncc1[C@@](N)(c1ccc(Cl)cc1)c1ccc2c(c1)c(-c1cccc(Cl)c1)cc(=O)n2C [Tipifarnib] | 0.158 µM | 0.109 µM | 0.7 |  | 
N#Cc1ccc(C(=O)Nc2cc(N3CCCCC3)ccc2N2CCCCC2)o1 [cFMS Receptor Inhibitor IV] |  |  | 1.0 | 9.57 µM | EC50 [2, 7]: > 10 µM
CC[C@H](Nc1ncnc2[nH]cnc12)c1nc2cccc(F)c2c(=O)n1-c1ccccc1 [GS1101 idelalisib CAL101, idelalisib] | 5.67 µM | 7.47 µM | 1.3 |  | 
CNc1cc2c(Nc3cccc(Br)c3)ncnc2cn1 [PD158780] |  |  | 1.0 | 7.71 µM | EC50 [2, 7]: 7.47 µM
Cc1ccc(C(=O)Nc2cccc(C(F)(F)F)c2)cc1Nc1nc(-c2cccnc2)nc2c1cnn2C [NVPBHG712] |  |  | 0.9 | 5.21 µM | EC50 [2, 7]: 4.44 µM
C[S+]([O-])c1ccc(-c2nc(-c3ccc(F)cc3)c(-c3ccncc3)[nH]2)cc1 (stereo not shown) [SB.203580] |  |  |  |  | EC50 [1]: > 10 µM; FOLD CHANGE High/Med-low [2]: 1.0; EC50 [2]: > 10 µM
O=c1cc(N2CCNCC2)oc2c(-c3ccccc3)cccc12 [LY303511] | > 10 µM | > 10 µM |  |  | 
O=C(NOCC1CC1)c1ccc(F)c(F)c1Nc1ccc(I)cc1Cl [CI1040 PD.184352.] | 2.77 µM | 2.44 µM | 0.9 |  | 
